Assay results reported in US20230089073A1 (Carmot Therapeutics, Inc., priority 2021, published 2023).

Target: T1, human GLP-1 receptor (Homo sapiens, UniProt P43220)
T1 construct: expressed in transfected cells
Experiment: GLP-1R cAMP Assay
Type: cell-based
Conditions: cAMP accumulation in CHO cells stably overexpressing the human GLP-1 receptor; 30 min treatment; HitHunter cAMP kit; read-out: EC50
Procedure, shortened: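 CHO cells stably overexpressing human GLP-1R, 10,000 cells/well, treated with compound in 20-point dose response in triplicate for 30 min. cAMP accumulation read by enzyme-complementation luminescence after lysis and overnight incubation; dose-response curves fitted.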

T1 sequence (P43220 24-463): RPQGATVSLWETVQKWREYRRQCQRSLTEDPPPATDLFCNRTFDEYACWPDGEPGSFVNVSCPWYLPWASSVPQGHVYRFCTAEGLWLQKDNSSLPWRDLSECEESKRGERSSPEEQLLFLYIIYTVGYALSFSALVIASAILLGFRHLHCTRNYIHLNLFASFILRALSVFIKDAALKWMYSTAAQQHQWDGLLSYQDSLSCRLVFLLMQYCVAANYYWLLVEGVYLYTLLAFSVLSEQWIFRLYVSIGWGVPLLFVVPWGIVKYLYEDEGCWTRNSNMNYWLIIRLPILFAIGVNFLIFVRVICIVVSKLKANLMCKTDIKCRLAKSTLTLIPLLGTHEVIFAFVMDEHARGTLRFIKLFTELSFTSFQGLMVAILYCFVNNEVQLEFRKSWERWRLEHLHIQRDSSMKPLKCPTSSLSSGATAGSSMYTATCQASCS

Compound | EC50 [nM]
N#Cc1ccc(OCc2cccc(OC3CCN(Cc4nc5c(F)cc(C(=O)O)cc5n4C[C@@H]4CCO4)CC3)c2)c(F)c1 [Compound 309] | < 50
O=C(O)c1ccc2nc(CN3CCC(Oc4cccc(COc5ccc(Cl)cc5F)n4)CC3)n(Cc3cnco3)c2c1 [Compound 269, 2-{[4-({6-[(4-chloro-2-fluorophenoxy)methyl]pyridin-2-yl}oxy)piperidin-1-yl]methyl}-1-[(1,3-oxazol-5-yl)methyl]-1H-1,3-benzodiazole-6-carboxylic acid] | < 50
O=C(O)c1ccc2nc(CN3CCN(Cc4ccc(OCc5ccc(Cl)cc5Cl)o4)CC3)n(C[C@@H]3CCO3)c2c1 [Example 74, (S)-2-((4-((5-((2,4-Dichlorobenzyl)oxy)furan-2-yl)methyl)piperazin-1-yl)methyl)-1-(oxetan-2-ylmethyl)-1H-benzo[d]imidazole-6-carboxylic acid] | > 500
O=C(O)c1ccc2nc(CN3CCN(Cc4cc5ccc(-c6ccc(Cl)cc6Cl)cc5o4)CC3)n(C[C@@H]3CCO3)c2c1 [Example 27, (S)-2-((4-((6-(2,4-Dichlorophenyl)benzofuran-2-yl)methyl)piperazin-1-yl)methyl)-1-(oxetan-2-ylmethyl)-1H-benzo[d]imidazole-6-carboxylic acid] | > 500
O=C(O)c1ccc2nc(CN3CCN(C(=O)c4cccc(Cc5ccc(Cl)cc5Cl)c4)CC3)n(C[C@@H]3CCO3)c2c1 [Compound 48, 2-[(4-{3-[(2,4-dichlorophenyl)methyl]benzoyl}piperazin-1-yl)methyl]-1-{[(2S)-oxetan-2-yl]methyl}-1H-1,3-benzodiazole-6-carboxylic acid] | 50 to 500
O=C(O)c1ccc2nc(CN3CCC(Oc4ccnc(COc5ccc(Cl)cc5Cl)c4)CC3)n(CC3CNC3)c2c1 [Compound 280, 1-[(azetidin-3-yl)methyl]-2-{[4-({2-[(2,4-dichlorophenoxy)methyl]pyridin-4-yl}oxy)piperidin-1-yl]methyl}-1H-1,3-benzodiazole-6-carboxylic acid] | < 50
O=C(O)c1ccc2nc(CN3CCC(Oc4ccnc(COc5ccc(F)cc5Cl)c4)CC3)n(C[C@@H]3CCO3)c2c1 [Example 220, (S)-2-((4-((2-((2-Chloro-4-fluorophenoxy)methyl)pyridin-4-yl)oxy)piperidin-1-yl)methyl)-1-(oxetan-2-ylmethyl)-1H-benzo[d]imidazole-6-carboxylic acid] | < 50
N#CCC1(Cn2c(CN3CCC(Oc4ccnc(COc5ccc(C#N)cc5F)n4)CC3)nc3c(F)cc(C(=O)O)cc32)CC1 [Compound 339] | < 50
O=C(O)c1ccc2nc(CN3CCc4[nH]c5ccc(OCc6ccc(Cl)cc6Cl)cc5c4C3)n(C[C@@H]3CCO3)c2c1 [Compound 142, 2-({8-[(2,4-dichlorophenyl)methoxy]-1H,2H,3H,4H,5H-pyrido[4,3-b]indol-2-yl}methyl)-1-{[(2S)-oxetan-2-yl]methyl}-1H-1,3-benzodiazole-6-carboxylic acid] | > 500
CCn1cncc1Cn1c(CN2CCN(C(=O)c3cnc(COc4ccc(Cl)cc4Cl)o3)C[C@@H]2C)nc2ccc(C(=O)O)cc21 [Compound 256, 2-{[(2S)-4-{2-[(2,4-dichlorophenoxy)methyl]-1,3-oxazole-5-carbonyl}-2-methylpiperazin-1-yl]methyl}-1-[(1-ethyl-1H-imidazol-5-yl)methyl]-1H-1,3-benzodiazole-6-carboxylic acid] | < 50
Cc1ccc(N(C)c2cccc(C(=O)N3CCN(Cc4nc5ccc(C(=O)O)cc5n4C[C@@H]4CCO4)CC3)c2)c(Cl)c1 [Compound 51, 2-[(4-{3-[(2-chloro-4-methylphenyl)(methyl)amino]benzoyl}piperazin-1-yl)methyl]-1-{[(2S)-oxetan-2-yl]methyl}-1H-1,3-benzodiazole-6-carboxylic acid] | < 50
N#Cc1cc(Cl)ccc1OCc1nccc(OC2CCN(Cc3nc4ccc(C(=O)O)cc4n3C[C@@H]3CCO3)CC2)n1 [Compound 481, 2-{[4-({2-[(4-chloro-2-cyanophenoxy)methyl]pyrimidin-4-yl}oxy)piperidin-1-yl]methyl}-1-{[(2S)-oxetan-2-yl]methyl}-1H-1,3-benzodiazole-6-carboxylic acid] | < 50
CCN(c1cccc(C(=O)N2CCN(Cc3nc4ccc(C(=O)O)cc4n3C[C@@H]3CCO3)CC2)c1)c1ccc(C)cc1Cl [Compound 52, 2-[(4-{3-[(2-chloro-4-methylphenyl)(ethyl)amino]benzoyl}piperazin-1-yl)methyl]-1-{[(2S)-oxetan-2-yl]methyl}-1H-1,3-benzodiazole-6-carboxylic acid] | < 50
N#Cc1cc(C2CC2)ccc1OCc1nccc(OC2CCN(Cc3nc4ccc(C(=O)O)cc4n3C[C@@H]3CCO3)CC2)n1 [Compound 476, 2-{[4-({2-[(2-cyano-4-cyclopropylphenoxy)methyl]pyrimidin-4-yl}oxy)piperidin-1-yl]methyl}-1-{[(2S)-oxetan-2-yl]methyl}-1H-1,3-benzodiazole-6-carboxylic acid] | < 50
O=C(O)c1ccc2nc(CN3CCC(Cc4cc(F)cc(COc5ccc(Cl)cc5Cl)c4)CC3)n(C[C@@H]3CCO3)c2c1 [Compound 126, 2-{[4-({3-[(2,4-dichlorophenoxy)methyl]-5-fluorophenyl}methyl)piperidin-1-yl]methyl}-1-{[(2S)-oxetan-2-yl]methyl}-1H-1,3-benzodiazole-6-carboxylic acid] | 50 to 500
C[C@H]1C[C@@H](Oc2ccnc(COc3ccc(C#N)cc3F)n2)CCN1Cc1nc2c(F)cc(C(=O)O)cc2n1C[C@@H]1CCO1 [Compound 323] | < 50
O=C(O)c1ccc2nc(CN3CC=C(Cc4ccc(COc5ccc(Cl)cc5Cl)o4)CC3)n(C[C@@H]3CCO3)c2c1 [Compound 84, 2-{[4-({5-[(2,4-dichlorophenoxy)methyl]furan-2-yl}methyl)-1,2,3,6-tetrahydropyridin-1-yl]methyl}-1-{[(2S)-oxetan-2-yl]methyl}-1H-1,3-benzodiazole-6-carboxylic acid] | < 50
Cc1ccc(Oc2cc(C(=O)N3CCN(Cc4nc5ccc(C(=O)O)cc5n4C[C@@H]4CCO4)CC3)ncn2)cc1 [Example 34, (S)-1-(Oxetan-2-ylmethyl)-2-((4-(6-(p-tolyloxy)pyrimidine-4-carbonyl)piperazin-1-yl)methyl)-1H-benzo[d]imidazole-6-carboxylic acid] | < 50
O=C(O)c1ccc2nc(CN3CCC(Oc4ccnc(COc5ccc(C(F)(F)F)cc5F)c4)CC3)n(C[C@@H]3CCO3)c2c1 [Compound 356] | < 50
C[C@H]1C[C@@H](Oc2ccnc(COc3cc(F)c(F)cc3F)n2)CCN1Cc1nc2ccc(C(=O)O)cc2n1C[C@@H]1CCO1 [Compound 514, 2-{[(2S,4S)-2-methyl-4-({2-[(2,4,5-trifluorophenoxy)methyl]pyrimidin-4-yl}oxy)piperidin-1-yl]methyl}-1-{[(2S)-oxetan-2-yl]methyl}-1H-1,3-benzodiazole-6-carboxylic acid] | < 50
CN(c1cc(C(=O)N2CCN(Cc3nc4ccc(C(=O)O)cc4n3C[C@@H]3CCO3)CC2)ncn1)C1CCCCC1 [Example 61, (S)-2-((4-(6-(Cyclohexyl(methyl)amino)pyrimidine-4-carbonyl)piperazin-1-yl)methyl)-1-(oxetan-2-ylmethyl)-1H-benzo[d]imidazole-6-carboxylic acid] | > 500
Cc1ccc(S(=O)(=O)Nc2cccc(C(=O)N3CCN(Cc4nc5ccc(C(=O)O)cc5n4C[C@@H]4CCO4)CC3)c2)cc1 [Compound 70, 2-({4-[3-(4-methylbenzenesulfonamido)benzoyl]piperazin-1-yl}methyl)-1-{[(2S)-oxetan-2-yl]methyl}-1H-1,3-benzodiazole-6-carboxylic acid] | > 500
O=C(O)c1ccc2nc(CN3CCC(Oc4ccnc(COc5ccc(F)cc5C(F)(F)F)n4)CC3)n(C[C@@H]3CCO3)c2c1 [Compound 342] | < 50
CCn1cncc1Cn1c(CN2CCC(C(F)(F)c3cccc(COc4ccc(C)cc4Cl)c3)CC2)nc2ccc(C(=O)O)cc21 [Example 132, 2-((4-((3-((2-Chloro-4-methylphenoxy)methyl)phenyl)difluoromethyl)piperidin-1-yl)methyl)-1-((1-ethyl-1H-imidazol-5-yl)methyl)-1H-benzo[d]imidazole-6-carboxylic acid] | < 50
Cc1ccc(C(C)c2cccc(C(=O)N3CCN(Cc4nc5ccc(C(=O)O)cc5n4C[C@@H]4CCO4)CC3)c2)c(Cl)c1 (stereo partly drawn) [Example 112, 2-((4-(3-(1-(2-Chloro-4-methylphenyl)ethyl)benzoyl)piperazin-1-yl)methyl)-1-(((S)-oxetan-2-yl)methyl)-1H-benzo[d]imidazole-6-carboxylic acid] | 50 to 500
C[C@H]1C[C@@H](Oc2cccc(COc3ccc(Cl)cc3F)n2)CCN1Cc1nc2ccc(C(=O)O)cc2n1C[C@@H]1CCO1 [Compound 291, 2-{[(2S,4S)-4-({6-[(4-chloro-2-fluorophenoxy)methyl]pyridin-2-yl}oxy)-2-methylpiperidin-1-yl]methyl}-1-{[(2S)-oxetan-2-yl]methyl}-1H-1,3-benzodiazole-6-carboxylic acid] | < 50
C[C@H]1C[C@H](Oc2cccc(COc3ccc(Cl)cc3Cl)c2)CCN1Cc1nc2ccc(C(=O)O)cc2n1C[C@@H]1CCO1 [Compound 254, 2-{[(2S,4R)-4-{3-[(2,4-dichlorophenoxy)methyl]phenoxy}-2-methylpiperidin-1-yl]methyl}-1-{[(2S)-oxetan-2-yl]methyl}-1H-1,3-benzodiazole-6-carboxylic acid] | < 50
O=C(O)c1ccc2nc(CN3CCC(Cc4cnc(COc5ccc(Cl)cc5Cl)o4)CC3)n(C[C@@H]3CCO3)c2n1 [Compound 129, 2-{[4-({2-[(2,4-dichlorophenoxy)methyl]-1,3-oxazol-5-yl}methyl)piperidin-1-yl]methyl}-3-{[(2S)-oxetan-2-yl]methyl}-3H-imidazo[4,5-b]pyridine-5-carboxylic acid] | < 50
